Where “and” joins values, the source holds several entries; their conditions need not be identical. Identical values can stand only once. Marks after values point to notes of the source that are not given here.
Tests used:
[1] = test system: NCR; assay: Limit of response rating of squash blossom volatiles on sticky traps (Example 5); format: in vivo, Diabrotica barberi; details: 24 hour; four replicate traps; 0.01 mg to 200 mg
Experimental: (§1) Over 40 individual volatile chemicals have been isolated from Cucurbita maxima blossoms and circa 25 of these have been unequivocally identified (Andersen, J. F., J. Agric. Food Chem., 35:60-62 (1987): Andersen, J. F. and Metcalf, R. L., J. Chem. Ecol., 12:687-699 (1986)). The major odor components were evaluated as potential attractants for adult Diabrotica species using cylindrical sticky traps baited with dental cotton wicks (Metcalf, R. L., and Lampman, R. L., Paper submitted to J. Econ. Entomol., (1988)) containing from 0.01 mg to 200 mg of volatile compound.

[2] = test system: SCR; assay: as above; format: in vivo, Diabrotica undecimpunctata howardi; details: 24 hour; four replicate traps; 0.01 mg to 200 mg
Experimental: as §1

[3] = test system: WCR; assay: as above; format: in vivo, Diabrotica virgifera virgifera; details: 24 hour; four replicate traps; 0.01 mg to 200 mg
Experimental: as §1

[4] = test system: southern corn rootworm (SCR) adults; assay: Sticky trap attraction in sweet corn plots (Example 1); format: in vivo, Diabrotica undecimpunctata howardi; details: August 4, second year, each compound 20 mg per trap
Experimental: (§2) The attraction of Diabrotica species to single-component and multicomponent lures was evaluated in corn fields. The field experiments on attraction of SCR and WCR adults were conducted in 0.405-ha (1-acre) plots of “Illini Xtra Sweet” corn grown on the University of Illinois South Farms at Urbana, Ill., over a two year period. Most of the tests were conducted in August to correspond with the peak silk-feeding and oviposition periods of corn rootworm adults in central Illinois. In both years, the sweet corn plot was adjacent to a 0.405-ha trap crop of C. maxima cultivar “Blue Hubbard”, to provide high densitites of SCR and WCR adults in the corn plots (Howe, et al., Environ. Entomol., 5:745-751 (1976), Lampman, et al., J. Chem. Ecol., 13:959-975 (1987).
(§3) Attraction of Diabrotica species to volatile compounds was measured by the average number of beetles cought during a 24-h period on 1.0-liter cylindrical paper cartons (15.2 cm high, 27.9 cm circumference) which were evenly coated with clear insect adhesive, TangleTrap™ (Tanglefood Co., Grand Rapids, Mich.) The candidate attractants were applied by capillary micropiettes to cotton dental wicks (13 mm long by 6 mm diameter) that were previously impregnated with mineral oil to prolong volatilization. The chemicals were purchased from Aldrich Chemical Co., (Milwaukee, Wis.) and assayed by gas chromatography as >97% pure. Indole, a solid at ambient temperatures (m.p. 52-54° C.), was dissolved in glass-distilled acetone before dosing the cotton wicks. For dosage-acticity tests, the various components were mixed in equal quantities by weight and diluted to the appropriate dosage with acetone. Treated and untreated (control) wicks were attached to the top of the paper cartons with TangleTrap™ and the inverted traps were placed on 1-m-high posts between the sweet corn rows. Four replicates of each treatment and a control were conducted in a randomized complete block desgin. The sticky traps within a block (ca. 50-m row of corn) were 5-10 m apart (depending on the number of treatments in a particular test) and the blocks were 3 m apart. The traps were baited and placed in the field between 1000 and 1300 hours and beetle counts were taken after 24 h. The significance of treatments was determined by analysis of variance and the individual means were separated by Duncan's multiple range test (Statistical Package for Social Sciences (SPSS) (Nie, et al., SPSS: statistical package for the social sciences, 2nd ed. McGraw-Hill, N.Y. (1975)). Student's t test was used for comparisons of two means (Sokal, et al., Biometry, Freeman, San Francisco (1969). Significance levels were set at P=0.05 at all statistical analyses.
(§4) The initial field test in August of the first year evaluated the response of SCR and WCR adults of a mixture of veratrole (V), indole (I), phenylacetaldehyde (P), trans-anethole (A), and eugenol (E) (=VIPAE mixture), as well as to the individual components. Each component in the VIPAE mixture was present at a dosage of 20 mg per trap and was compared with the individual components at 100 mg per trap. The response of SCR and WCR adults to a range of VIPAE doses, 1-300 mg, was conducted on the following day. Fifty SCR adults were removed from each 100-mg VIPAE trap, and returned to the laboratory for sex determination. Additional analyses in August evaluated the reduction in trap catches produced by the sequential removal of the individual components from the VIPAE lure. After the primary components of the initial lure were determined, a modified multicomponent lure consisting of veratrole, indole, and phenylacetaldehyde (=VIP mixture) was compared with its individual components to determine whether the attraction of SCR adults was the result of interactive or additive factors. The attraction and synergistic response of SCR adults of the VIP mixture was verified by tests conducted in August of the following year. […]

[5] = test system: western corn rootworm (WCR) adults; assay: as above; format: in vivo, Diabrotica virgifera virgifera; details: August 4, second year, each compound 20 mg per trap
Experimental: as §2, §3, §4

[6] = test system: D. barberi; assay: Sticky trap attraction in prairie habitat, Trelease Woods (Example 2); format: in vivo, Diabrotica barberi; details: 100 mg per trap, n = 4
Experimental: (§5) The candidate lures in all experiments were purchased commercially and exceeded 98% purity. The test chemicals were applied by capillary micropipettes to cotton dental wicks which were attached to the tops of 1.0 liter cylindrical paper cartons covered with TangleTrap™ (Tanglefoot Co., Grand Rapids, Mich.). The sticky trap techniques used were as described in Example 1. Cinnamyl alcohol and para-methoxycinnamaldehyde, which are solids, were dissolved in glass-distilled acetone prior to dosing the cotton wicks. […]. Control traps had untreated cotton wicks. Four replicates of treated and untreated traps were randomly positioned 10 meters apart on top of 1 m high posts along the border of a eight foot wide strip cut through the middle of a 4.05 ha relict prairie at Trelease Woods (ca. two miles northeast of Urbana, Ill.). The field consisted primarily of Andropogon gerardii Vitman (big bluestem) and a variety of composites. The tests were conducted in mid-August of two years and were timed to coincide with the presence of D. cristata and D. barberi adults in the flower heads of Canada thistle (Carduus arvensis Robson). In the second year, several new attractants of D. v. virgifera and D. barberi were tested in Trelease Woods and along the edge of a 0.8 ha field of hybrid corn located at the Pomology South Farms, Urbana, Ill. Attraction of Diabrotica species to the various lures was measured by the mean number of beetles caught after 24-h. On one date in late August of the first year, D. cristata and D. barberi were removed from the traps and sexed in the laboratory. The significance of treatments in all tests was determined by an analysis of variance and the individual means were separated by Duncan's multiple range test (Statistical Package for Social Science, Nie, et al., SPSS: statistical package for the social sciences, 2nd ed. McGraw-Hill, New York (1975). Data were logarithmically transformed for statistical analysis and the means and standard deviations are presented for the untransformed data.

[7] = test system: D. cristata; assay: as above; format: in vivo, Diabrotica cristata; details: 100 mg per trap, n = 4
Experimental: as §5

[8] = test system: D. v. virgifera; assay: as above; format: in vivo, Diabrotica virgifera virgifera; details: 100 mg per trap, n = 4
Experimental: as §5

[9] = test system: D. u. howardi; assay: as above; format: in vivo, Diabrotica undecimpunctata howardi; details: 100 mg per trap, n = 4
Experimental: as §5

## COc1ccc(OC)c(OC)c1 [1,2,4-trimethoxybenzene]
[1]
  Attractant Rating NCR (by limit of response): 0 (200)
[2]
  Attractant Rating SCR (by limit of response): +1 (30-100)
[3]
  Attractant Rating WCR (by limit of response): +1 (30-100)

## COc1ccc(OC)cc1 [1,4-dimethoxybenzene]
[1]
  Attractant Rating NCR (by limit of response): 0 (200)
[2]
  Attractant Rating SCR (by limit of response): 0 (200)
[3]
  Attractant Rating WCR (by limit of response): 0 (200)

## CCCCCC=O [1-hexanal]
[1]
  Attractant Rating NCR (by limit of response): 0 (200)
[2]
  Attractant Rating SCR (by limit of response): 0 (200)
[3]
  Attractant Rating WCR (by limit of response): 0 (200)

## CCCCCCO [1-hexanol]
[1]
  Attractant Rating NCR (by limit of response): 0 (200)
[2]
  Attractant Rating SCR (by limit of response): 0 (200)
[3]
  Attractant Rating WCR (by limit of response): 0 (200)

## COc1ccccc1O [Guaiacol, 2-methoxyphenol]
[4]
  relative percent activity (SCR) as compared with the highest mean value for the test date: 2%
[4]; n = 4
  Mean number of SCR per trap (±standard deviation): 0.8 ± 0.6 per trap
[5]
  relative percent activity (WCR) as compared with the highest mean value for the test date: 39%
[5]; n = 4
  Mean number of WCR per trap (±standard deviation): 20.0 ± 8.9 per trap
[6]; August 20, first year
  Mean number of D. barberi per sticky trap per day (±standard deviation): 4.3 ± 2.1^b per sticky trap per day
[7]; August 20, first year
  Mean number of D. cristata per sticky trap per day (±standard deviation): 6.0 ± 2.6^b per sticky trap per day
[8]; August 20, first year
  Mean number of D. v. virgifera per sticky trap per day (±standard deviation): 0 per sticky trap per day
[9]; August 20, first year
  Mean number of D. u. howardi per sticky trap per day (±standard deviation): 0.8 ± 1.0^a per sticky trap per day

## CC=Cc1ccc(O)c(OC)c1 [Isoeugenol]
[6]; August 18, first year
  Mean number of D. barberi per sticky trap per day (±standard deviation): 31.8 ± 26.7^b per sticky trap per day
[6]; August 27, first year
  Mean number of D. barberi per sticky trap per day (±standard deviation): 8.5 ± 3.4^b per sticky trap per day
[7]; August 18, first year
  Mean number of D. cristata per sticky trap per day (±standard deviation): 10.5 ± 12.6^b per sticky trap per day
[7]; August 27, first year
  Mean number of D. cristata per sticky trap per day (±standard deviation): 2.5 ± 1.7^b per sticky trap per day
[8]; August 18, first year
  Mean number of D. v. virgifera per sticky trap per day (±standard deviation): 0.0^a per sticky trap per day
[8]; August 20, first year
  Mean number of D. v. virgifera per sticky trap per day (±standard deviation): 0 per sticky trap per day
[8]; August 27, first year
  Mean number of D. v. virgifera per sticky trap per day (±standard deviation): 0 per sticky trap per day
[9]; August 18, first year
  Mean number of D. u. howardi per sticky trap per day (±standard deviation): 0.0^a per sticky trap per day
[9]; August 20, first year
  Mean number of D. u. howardi per sticky trap per day (±standard deviation): 0.5 ± 1.0^a per sticky trap per day and 1.0 ± 0.8^a per sticky trap per day
[9]; August 27, first year
  Mean number of D. u. howardi per sticky trap per day (±standard deviation): 0.5 ± 1.0^a per sticky trap per day

## C=CCc1ccc(OC)c(OC)c1 [Methyl eugenol]
[6]; August 14, 1987
  Mean number of D. barberi per day (±standard deviation): 1.0 ± 1.4^a per day
[6]; August 18, first year
  Mean number of D. barberi per sticky trap per day (±standard deviation): 1.8 ± 1.7^a per sticky trap per day
[6]; August 20, first year
  Mean number of D. barberi per sticky trap per day (±standard deviation): 2.0 ± 1.4^ab per sticky trap per day
[7]; August 14, 1987
  Mean number of D. cristata per day (±standard deviation): 4.5 ± 1.3^ab per day
[7]; August 18, first year
  Mean number of D. cristata per sticky trap per day (±standard deviation): 1.8 ± 1.5^a per sticky trap per day
[7]; August 20, first year
  Mean number of D. cristata per sticky trap per day (±standard deviation): 1.5 ± 1.7^a per sticky trap per day
[8]; August 14, 1987
  Mean number of D. v. virgifera per day (±standard deviation): 0.0^a per day
[8]; August 18, first year
  Mean number of D. v. virgifera per sticky trap per day (±standard deviation): 0.0^a per sticky trap per day
[8]; August 20, first year
  Mean number of D. v. virgifera per sticky trap per day (±standard deviation): 0 per sticky trap per day
[9]; August 14, 1987
  Mean number of D. u. howardi per day (±standard deviation): 0.3 ± 0.5^a per day
[9]; August 18, first year
  Mean number of D. u. howardi per sticky trap per day (±standard deviation): 0.0^a per sticky trap per day
[9]; August 20, first year
  Mean number of D. u. howardi per sticky trap per day (±standard deviation): 0.3 ± 0.5^a per sticky trap per day

## C=CCc1ccc2c(c1)OCO2 [Safrole]
[6]; August 20, first year
  Mean number of D. barberi per sticky trap per day (±standard deviation): 0.25 ± 0.25^a per sticky trap per day
[7]; August 20, first year
  Mean number of D. cristata per sticky trap per day (±standard deviation): 1.3 ± 1.9^a per sticky trap per day
[8]; August 20, first year
  Mean number of D. v. virgifera per sticky trap per day (±standard deviation): 0 per sticky trap per day
[9]; August 20, first year
  Mean number of D. u. howardi per sticky trap per day (±standard deviation): 0.0^a per sticky trap per day

## O=Cc1ccccc1 [benzaldehyde]
[1]
  Attractant Rating NCR (by limit of response): 0 (200)
[2]
  Attractant Rating SCR (by limit of response): 0 (200)
[3]
  Attractant Rating WCR (by limit of response): 0 (200)

## OCc1ccccc1 [benzyl alcohol]
[1]
  Attractant Rating NCR (by limit of response): 0 (200)
[2]
  Attractant Rating SCR (by limit of response): 0 (200)
[3]
  Attractant Rating WCR (by limit of response): 0 (200)

## CC/C=C\CCO [cis-3-hexenol]
[1]
  Attractant Rating NCR (by limit of response): 0 (200)
[2]
  Attractant Rating SCR (by limit of response): 0 (200)
[3]
  Attractant Rating WCR (by limit of response): +1 (30-100)

## C=CC(C)(O)CCC=C(C)CCC=C(C)C (stereo not shown) [nerolidol]
[1]
  Attractant Rating NCR (by limit of response): 0 (200)
[2]
  Attractant Rating SCR (by limit of response): 0 (200)
[3]
  Attractant Rating WCR (by limit of response): 0 (200)

## COc1ccc(C=O)cc1 [p-methoxybenzaldehyde]
[1]
  Attractant Rating NCR (by limit of response): 0 (200)
[2]
  Attractant Rating SCR (by limit of response): 0 (200)
[3]
  Attractant Rating WCR (by limit of response): 0 (200)

## CCC/C=C/C=O [trans-2-hexenal]
[1]
  Attractant Rating NCR (by limit of response): 0 (200)
[2]
  Attractant Rating SCR (by limit of response): 0 (200)
[3]
  Attractant Rating WCR (by limit of response): 0 (200)

## CCC/C=C/CO [trans-2-hexenol]
[1]
  Attractant Rating NCR (by limit of response): 0 (200)
[2]
  Attractant Rating SCR (by limit of response): +1 (30-100)
[3]
  Attractant Rating WCR (by limit of response): +1 (30-100)
